Test results from patent US9856264B2, “Isoquinolinesulfonyl derivative as RHO kinase inhibitor” (MEDSHINE DISCOVERY INC., priority 2014, dated 2018).
pIC50: −log10 of the molar value.

Biological target: ROCK kinase
Test: In vitro ROCK kinase inhibition activity evaluation (33P-ATP filter-binding)
Assay type: biochemical
Parameters: key to ROCK inhibition activity: 1 μM ≦ + < 5 μM; 0.1 μM ≦ ++ < 1 μM; +++ < 0.1 μM; −− N/A
Details: 1 nM ROCK kinase, 20 μM Long S6 Kinase substrate peptide, 2 h room temperature
Protocol: Biological Activity Experiment: In Vitro ROCK Kinase Inhibition Activity Evaluation
Experimental Objective: Test ROCK Inhibition IC50 Value of Invented Compounds
Buffer solution: 20 mM Hepes (pH 7.5), 10 mM MgCl2, 1 mM EGTA, 0.02% Brij35, 0.02 mg/ml BSA, 0.1 mM Na3VO4, 2 mM DTT, 1% DMSO
To a freshly prepared buffer solution was added ROCK substrate Long S6 Kinase substrate peptide, with concentration at 20 μM. 1 nM ROCK kinase was then added, and well stirred. A series of DMSO solution (starting from 10 μM, dilution factor 3) of testing article was added using Echo550. The mixture was incubated for 20 min at room temperature, then was added ^33P-ATP (radioactive intensity 10 μCi/μL) to initiate reaction and further reacted for 2 h at room temperature. The mixture was filtered through P81 ion exchange paper (Whatman #3698-915), and washed by 0.75% phosphoric acid. The intensity of radiation was measured by Filter-Binding method.
The inhibition activity of the testing articles were measured by comparing the residue kinase activity to blank substrate (pure DMSO). Using Prism software ((GraphPad Software, San Diego Calif., USA) to calculate IC50 and curve.

SMILES	pIC50	ROCK inhibition activity
O=S(=O)(c1cccc2cncc(F)c12)N1C[C@H]2CNC[C@H]2C1 [Example 29, 4-fluoro-5-((hexahydropyrrolo[3,4-c]pyrrol-2(1H)-yl)sulfonyl)isoquinoline]	6.00 to 7.00	
O=S(=O)(c1cccc2cncc(F)c12)N1CC2CCCNC2C1 (stereo not shown) [Example 30, 4-fluoro-5-((hexahydro-1H-pyrrolo[3,4-b]pyridin-6(2H)-yl)sulfonyl)isoquinoline]	6.00 to 7.00	
O=S(=O)(c1cccc2cncc(C(F)F)c12)N1C[C@H]2CNC[C@H]2C1 [Example 35, 4-(difluoromethyl)-5-((hexahydropyrrolo[3,4-c]pyrrol-2(1H)-yl)sulfonyl)isoquinoline]		−−
O=S(=O)(c1cccc2cncc(C(F)F)c12)N1CC2CCNCC2C1 (stereo not shown) [Example 36, 4-(difluoromethyl)-5-((hexahydro-1H-pyrrolo[3,4-c]pyridin-2(3H)-yl)sulfonyl)isoquinoline]		−−
Cc1cncc2cccc(S(=O)(=O)N3C[C@@H]4CCN[C@@H]4C3)c12 [Example 38, 5-((hexahydropyrrolo[3,4-d]pyrrol-5 (1H)-yl)sulfonyl)-4-methylisoquinoline]	> 7.00	
Cc1cncc2cccc(S(=O)(=O)N3CCC4NCCCC43)c12 (stereo not shown) [Example 42, 4-methyl-5-((octahydro-1H-pyrrolo[3,2-b]pyridin-1-yl)sulfonyl)isoquinoline]	> 7.00	
Cc1cncc2cccc(S(=O)(=O)N3C[C@H]4CNC[C@H]4C3)c12 [Example 43, 5-((hexahydropyrrolo[3,4-c]pyrrol-2(1H)-yl)sulfonyl)-4-methylisoquinoline]	> 7.00	
Cc1cncc2cccc(S(=O)(=O)N3CC4CCNCC4C3)c12 (stereo not shown) [Example 44, 5-((hexahydro-1H-pyrrolo[3,4-c]pyridin-2(3H)-yl)sulfonyl)-4-methylisoquinoline]	> 7.00	
Cc1cncc2cccc(S(=O)(=O)N3CCC4NCCCC4C3)c12 (stereo not shown) [Example 45, 6-((4-methylisoquinolin-5-yl)sulfonyl)decahydro-1,6-naphthyridine]	5.30 to 6.00	
COc1cncc2cccc(S(=O)(=O)N3CCC4NCCCC43)c12 (stereo not shown) [Example 51, 4-methoxy-5-((octahydro-1H-pyrrolo[3,2-b]pyridin-1-yl)sulfonyl)isoquinoline]	5.30 to 6.00	
COc1cncc2cccc(S(=O)(=O)N3C[C@H]4CNC[C@H]4C3)c12 [Example 52, 5-((hexahydropyrrolo[3,4-c]pyrrol-2(1H)-yl)sulfonyl)-4-methoxyisoquinoline]	5.30 to 6.00	
COc1cncc2cccc(S(=O)(=O)N3CC4CCNCC4C3)c12 (stereo not shown) [Example 53, 5-((hexahydro-1H-pyrrolo[3,4-c]pyridin-2(3H)-yl)sulfonyl)-4-methoxyisoquinoline]	5.30 to 6.00	
COc1cncc2cccc(S(=O)(=O)N3CCC4NCCCC4C3)c12 (stereo not shown) [Example 54, 6-((4-methoxyisoquinolin-5-yl)sulfonyl)decahydro-1,6-naphthyridine]	5.30 to 6.00	
NC12CCC1CN(S(=O)(=O)c1cccc3cnccc13)C2 (stereo not shown) [Example 55, 3-(isoquinolin-5-ylsulfonyl)-3-azabicyclo[3.2.0]heptan-1-amine]	5.30 to 6.00	
NC12CC1CN(S(=O)(=O)c1cccc3cnccc13)C2 (stereo not shown) [Example 56, 3-(isoquinolin-5-ylsulfonyl)-3-azabicyclo[3.1.0]hexan-1-amine]	6.00 to 7.00	
CCNC12CC1CN(S(=O)(=O)c1cccc3cnccc13)C2 (stereo not shown) [Example 57, N-ethyl-3-(isoquinolin-5-ylsulfonyl)-3-azabicyclo[3.1.0]hexan-1-amine]	5.30 to 6.00	
